Source: the supplement of paper PMC11061612

Assays:
Test in all cases: Bliss excess, mean over the matrix (fraction); higher = more synergy
[1] = tested on: KU-19-19 (Bladder Carcinoma)
Procedure, shortened: (§1)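 After 24 hours at 37°C and 5% CO2 in 1536-well plates, cells in DMEM/F12 or RPMI plus 10% FBS received two-drug dose matrices for 72 hours. Viability came from CellTiter-Glo 2.0 luminescence and was scaled as inhibition, anchored at 0 by vehicle wells and at 1 by blank wells. Combination Emax is taken as the second-highest inhibition in the matrix, and Bliss excess as the observed combination effect less EA + EB − EA·EB, with EA and EB the single-agent effects.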

[2] = tested on: NCI-H2347 (Lung Adenocarcinoma)
Procedure, shortened: as §1

[3] = tested on: OCUM-1 (Gastric Carcinoma)
Procedure, shortened: as §1

[4] = tested on: OVISE (Ovarian Carcinoma)
Procedure, shortened: as §1

[5] = tested on: PFSK-1 (Other Solid Carcinomas)
Procedure, shortened: as §1

[6] = tested on: SCC-9 (Oral Cavity Carcinoma)
Procedure, shortened: as §1

[7] = tested on: SNU-C1 (Colorectal Carcinoma)
Procedure, shortened: as §1

[8] = tested on: TGBC11TKB (Gastric Carcinoma)
Procedure, shortened: as §1

[9] = tested on: A704 (Kidney Carcinoma)
Procedure, shortened: as §1

[10] = tested on: BT-20 (Breast Carcinoma)
Procedure, shortened: as §1

[11] = tested on: DG-75 (Burkitt's Lymphoma)
Procedure, shortened: as §1

[12] = tested on: EBC-1 (Squamous Cell Lung Carcinoma)
Procedure, shortened: as §1

[13] = tested on: EW-18 (Ewing's Sarcoma)
Procedure, shortened: as §1

[14] = tested on: GOTO (Neuroblastoma)
Procedure, shortened: as §1

[15] = tested on: IMR-5 (Neuroblastoma)
Procedure, shortened: as §1

[16] = tested on: KP-2 (Pancreatic Carcinoma)
Procedure, shortened: as §1

[17] = tested on: LOU-NH91 (Squamous Cell Lung Carcinoma)
Procedure, shortened: as §1

[18] = tested on: NCI-H322M (Lung Adenocarcinoma)
Procedure, shortened: as §1

[19] = tested on: RPMI-7951 (Melanoma)
Procedure, shortened: as §1

[20] = tested on: SCC-3 (B-Cell Non-Hodgkin's Lymphoma)
Procedure, shortened: as §1

Structure (SMILES)	Bliss excess [1]	Bliss excess [2]	Bliss excess [3]	Bliss excess [4]	Bliss excess [5]	Bliss excess [6]	Bliss excess [7]	Bliss excess [8]	Bliss excess [9]	Bliss excess [10]	Bliss excess [11]	Bliss excess [12]	Bliss excess [13]	Bliss excess [14]	Bliss excess [15]	Bliss excess [16]	Bliss excess [17]	Bliss excess [18]	Bliss excess [19]	Bliss excess [20]
CS(=O)(=O)CCNCc1ccc(-c2ccc3ncnc(Nc4ccc(OCc5cccc(F)c5)c(Cl)c4)c3c2)o1 [Lapatinib] + NC1(c2ccc(-c3nc4ccn5c(=O)[nH]nc5c4cc3-c3ccccc3)cc2)CCC1 [MK-2206] (first compound max 10 µM, 7x7, partner max 10 µM)	-0.0103	-0.0315	-0.0313	0.0286	-0.0286	0.0038	-0.0184	-0.0334												
COc1cccc(OCCCN)c1-c1cc(Nc2cnc(C#N)cn2)n[nH]1 [Prexasertib] + CN(C)CCCOc1ccc(-c2ccc3ncc4c(c3c2)n(C2CCOCC2)c(=O)n4C)cn1 [AZD0156] (first compound max 1 µM, 7x7, partner max 1 µM)	-0.0046	-0.0178	0.0558	0.0209		-0.0159	-0.0336	-0.0009	0.0033	-0.026	-0.0093	-0.0297	0.021	-0.0098	-0.015	-0.0286	-0.0374	0.011	-0.0165	0.0103
COc1cccc(OCCCN)c1-c1cc(Nc2cnc(C#N)cn2)n[nH]1 [Prexasertib] + C[C@@H]1COCCN1C2=NC(=NC(=C2)C3(CC3)[S@](=N)(=O)C)C4=C5C=CNC5=NC=C4 [AZD6738] (first compound max 1 µM, 7x7, partner max 10 µM)	-0.0796	-0.081	-0.0698	0.0341		0.0803	-0.0078	-0.0137	0.0224	-0.0218	-0.0381	-0.0113	-0.0548	-0.0866	-0.01	-0.0324	0.0295	-0.0367	-0.0372	-0.0201
COc1cccc(OCCCN)c1-c1cc(Nc2cnc(C#N)cn2)n[nH]1 [Prexasertib] + Cc1cc2ncnn2cc1Nc1ncc2c(n1)n(C1CCOCC1)c(=O)n2C [AZD7648] (first compound max 1 µM, 7x7, partner max 10 µM)	-0.0038	-0.0552	0.0005	-0.0333		0.0092	-0.0873	-0.0148	0.0144	-0.0536	-0.055	-0.0054	-0.0679	-0.0243	-0.0065	0.0258	0.007	-0.0083	0.0049	-0.0082
COc1cccc(OCCCN)c1-c1cc(Nc2cnc(C#N)cn2)n[nH]1 [Prexasertib] + O=C(c1cc(Cc2n[nH]c(=O)c3ccccc23)ccc1F)N1CCN(C(=O)C2CC2)CC1 [Olaparib] (first compound max 1 µM, 7x7, partner max 10 µM)	0.0061	-0.0407	-0.0645	-0.0578		-0.0181	-0.153	-0.0658	-0.0973	0.0405	-0.0819	-0.0052	-0.0677	-0.101	-0.0097	-0.0682	0.0427	-0.126	-0.0358	-0.0133
COc1cc2c(cc1OCCCCCOc1cc3c(cc1OC)C(=O)N1C=C(C)C[C@H]1C=N3)N=C[C@@H]1CC(C)=CN1C2=O [SG3199] + O=C(c1cc(Cc2n[nH]c(=O)c3ccccc23)ccc1F)N1CCN(C(=O)C2CC2)CC1 [Olaparib] (first compound max 0.001 µM, 7x7, partner max 10 µM)	-0.0041	-0.0661	-0.0653	-0.0431		-0.0352	-0.0446	-0.0038	-0.025	-0.0366	0.0064	-0.014	-0.0629	0.0943	0.0167	-0.0193	-0.0224	-0.0014	0.0032	0.0586
CCc1c2c(nc3ccc(O)cc13)-c1cc3c(c(=O)n1C2)COC(=O)[C@]3(O)CC [SN-38] + CN(C)CCCOc1ccc(-c2ccc3ncc4c(c3c2)n(C2CCOCC2)c(=O)n4C)cn1 [AZD0156] (first compound max 0.3 µM, 7x7, partner max 1 µM)	0.0033	-0.0118	-0.0395	-0.0355		0.0484	-0.0125	0.0074	-0.0533	0.0684	0.0751	-0.0488	-0.0607	-0.0221	0.0314	0.0154	0.011	0.15	0.0647	0.0372
